According to the supplement of paper PMC11061612:

Legend:
Capivasertib = compound: C1CN(CCC1(C(=O)N[C@@H](CCO)C2=CC=C(C=C2)Cl)N)C3=NC=NC4=C3C=CN4 [Capivasertib]; settings: max 10 µM
How it was run: (§1)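 Cancer cell lines were plated in 1536-well plates in 7.5 μl of DMEM/F12 or RPMI with 10% FBS and kept 24 hours at 37°C and 5% CO2 before 72 hours of dosing, with final DMSO typically 0.2%. CellTiter-Glo 2.0 luminescence measured viability, scaled between blank-well and DMSO-well means. Dose responses were fitted to a two-parameter logistic curve with a non-linear mixed effects model. This fit gives the single-agent IC50.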

AZD1775 = compound: C=CCn1c(=O)c2cnc(Nc3ccc(N4CCN(C)CC4)cc3)nc2n1-c1cccc(C(C)(C)O)n1 [AZD1775]; settings: max 3 µM
How it was run: as §1

Trametinib = compound: CC(=O)Nc1cccc(-n2c(=O)n(C3CC3)c(=O)c3c(Nc4ccc(I)cc4F)n(C)c(=O)c(C)c32)c1 [Trametinib]; settings: max 1 µM
How it was run: as §1

Palbociclib = compound: CC(=O)c1c(C)c2cnc(Nc3ccc(N4CCNCC4)cn3)nc2n(C2CCCC2)c1=O [Palbociclib]; settings: max 10 µM
How it was run: as §1

AZD1390 = compound: CC(C)n1c(=O)n(C)c2cnc3cc(F)c(-c4ccc(OCCCN5CCCCC5)nc4)cc3c21 [AZD1390]; settings: max 0.3 µM
How it was run: as §1

Venetoclax = compound: CC1(C)CCC(CN2CCN(c3ccc(C(=O)NS(=O)(=O)c4ccc(NCC5CCOCC5)c([N+](=O)[O-])c4)c(Oc4cnc5[nH]ccc5c4)c3)CC2)=C(c2ccc(Cl)cc2)C1 [Venetoclax]; settings: max 1 µM
How it was run: as §1

Dasatinib = compound: CC1=C(C(=CC=C1)Cl)NC(=O)C2=CN=C(S2)NC3=CC(=NC(=N3)C)N4CCN(CC4)CCO [Dasatinib]; settings: max 2 µM
How it was run: as §1

SG3199 = compound: CC1=CN2[C@@H](C1)C=NC3=CC(=C(C=C3C2=O)OC)OCCCCCOC4=C(C=C5C(=C4)N=C[C@@H]6CC(=CN6C5=O)C)OC [SG3199]; settings: max 0.001 µM
How it was run: as §1

AZD2811 = compound: CCN(CCO)CCCOc1ccc2c(Nc3cc(CC(=O)Nc4cccc(F)c4)[nH]n3)ncnc2c1 [AZD2811]; settings: max 1 µM
How it was run: as §1

SN-38 = compound: CCc1c2c(nc3ccc(O)cc13)-c1cc3c(c(=O)n1C2)COC(=O)[C@]3(O)CC [SN-38]; settings: max 0.3 µM
How it was run: as §1

AZD0156 = compound: CN(C)CCCOc1ccc(-c2ccc3ncc4c(c3c2)n(C2CCOCC2)c(=O)n4C)cn1 [AZD0156]; settings: max 3 µM
How it was run: as §1

AZD4320 = compound: CN(CC[C@H](CSC1=CC=CC=C1)NC2=C(C=C(C=C2)S(=O)(=O)NC(=O)C3=CC=C(C=C3)N4CCC(CC4)[C@H](C5=CC=CC=C5C6=CC=C(C=C6)Cl)O)S(=O)(=O)C(F)(F)F)CCO [AZD4320]; settings: max 1 µM
How it was run: as §1

Alisertib = compound: COc1cc(Nc2ncc3c(n2)-c2ccc(Cl)cc2C(c2c(F)cccc2OC)=NC3)ccc1C(=O)O [Alisertib]; settings: max 10 µM
How it was run: as §1

Gefitinib = compound: COc1cc2ncnc(Nc3ccc(F)c(Cl)c3)c2cc1OCCCN1CCOCC1 [Gefitinib]; settings: max 10 µM
How it was run: as §1

Prexasertib = compound: COc1cccc(OCCCN)c1-c1cc(Nc2cnc(C#N)cn2)n[nH]1 [Prexasertib]; settings: max 1 µM
How it was run: as §1

Doxorubicin = compound: COc1cccc2c1C(=O)c1c(O)c3c(c(O)c1C2=O)C[C@@](O)(C(=O)CO)C[C@@H]3O[C@H]1C[C@H](N)[C@H](O)[C@H](C)O1 [Doxorubicin]; settings: max 1 µM
How it was run: as §1

AZD5153 = compound: COc1nnc2ccc(N3CCC(c4ccc(OCCN5CCN(C)C(=O)[C@H]5C)cc4)CC3)nn12 [AZD5153]; settings: max 1 µM
How it was run: as §1

Lapatinib = compound: CS(=O)(=O)CCNCc1ccc(-c2ccc3ncnc(Nc4ccc(OCc5cccc(F)c5)c(Cl)c4)c3c2)o1 [Lapatinib]; settings: max 10 µM
How it was run: as §1

AZD8186 = compound: C[C@@H](Nc1cc(F)cc(F)c1)c1cc(C(=O)N(C)C)cc2c(=O)cc(N3CCOCC3)oc12 [AZD8186]; settings: max 3 µM
How it was run: as §1

Crizotinib = compound: C[C@@H](Oc1cc(-c2cnn(C3CCNCC3)c2)cnc1N)c1c(Cl)ccc(F)c1Cl [Crizotinib]; settings: max 10 µM
How it was run: as §1

Savolitinib = compound: C[C@@H](c1ccc2nccn2c1)n1nnc2ncc(-c3cnn(C)c3)nc21 [Savolitinib]; settings: max 1 µM
How it was run: as §1

AZD6738 = compound: C[C@@H]1COCCN1C2=NC(=NC(=C2)C3(CC3)[S@](=N)(=O)C)C4=C5C=CNC5=NC=C4 [AZD6738]; settings: max 10 µM
How it was run: as §1

AZD5991 = compound: Cc1c2c(nn1C)CSCc1cc(n(C)n1)CSc1cc(c3ccccc3c1)OCCCc1c(C(=O)O)n(C)c3c-2c(Cl)ccc13 [AZD5991]; settings: max 1 µM
How it was run: as §1

AZD7648 = compound: Cc1cc2ncnn2cc1Nc1ncc2c(n1)n(C1CCOCC1)c(=O)n2C [AZD7648]; settings: max 10 µM
How it was run: as §1

Taselisib = compound: Cc1nc(-c2cn3c(n2)-c2ccc(-c4cnn(C(C)(C)C(N)=O)c4)cc2OCC3)n(C(C)C)n1 [Taselisib]; settings: max 10 µM
How it was run: as §1

Selumetinib = compound: Cn1cnc2c(F)c(Nc3ccc(Br)cc3Cl)c(C(=O)NOCCO)cc21 [Selumetinib]; settings: max 10 µM
How it was run: as §1

Olaparib = compound: O=C(c1cc(Cc2n[nH]c(=O)c3ccccc23)ccc1F)N1CCN(C(=O)C2CC2)CC1 [Olaparib]; settings: max 10 µM
How it was run: as §1

Row | Cell Line | IC50, cell viability 72 h (Capivasertib) [µM] | IC50, cell viability 72 h (AZD1775) [nM] | IC50, cell viability 72 h (Trametinib) [nM] | IC50, cell viability 72 h (Palbociclib) [µM] | IC50, cell viability 72 h (AZD1390) [nM] | IC50, cell viability 72 h (Venetoclax) [nM] | IC50, cell viability 72 h (Dasatinib) [nM] | IC50, cell viability 72 h (SG3199) [nM] | IC50, cell viability 72 h (AZD2811) [nM] | IC50, cell viability 72 h (SN-38) [nM] | IC50, cell viability 72 h (AZD0156) [nM] | IC50, cell viability 72 h (AZD4320) [nM] | IC50, cell viability 72 h (Alisertib) [µM] | IC50, cell viability 72 h (Gefitinib) [µM] | IC50, cell viability 72 h (Prexasertib) [nM] | IC50, cell viability 72 h (Doxorubicin) [nM] | IC50, cell viability 72 h (AZD5153) [nM] | IC50, cell viability 72 h (Lapatinib) [µM] | IC50, cell viability 72 h (AZD8186) [nM] | IC50, cell viability 72 h (Crizotinib) [nM] | IC50, cell viability 72 h (Savolitinib) [nM] | IC50, cell viability 72 h (AZD6738) [nM] | IC50, cell viability 72 h (AZD5991) [nM] | IC50, cell viability 72 h (AZD7648) [µM] | IC50, cell viability 72 h (Taselisib) [µM] | IC50, cell viability 72 h (Selumetinib) [nM] | IC50, cell viability 72 h (Olaparib) [µM]
1 | BV-173 (Chronic Myelogenous Leukemia) | 4.14 | 294 | 57.2 | 3.94 | > 300 | 50.4 | < 2 | > 1 | 6.95 | 1.42 | > 3000 | 5.26 | 0.0385 | > 10 | 4.79 | 46.5 | 65.1 | 4.02 | > 3000 | 497 | > 1000 | 260 | 30.6 | > 10 | > 10 | 2330 | 3.25
2 | DG-75 (Burkitt's Lymphoma) | > 10 | 424 | > 1000 | 1.25 | > 300 | > 1000 | > 2000 | > 1 | > 1000 | 38.7 | > 3000 | > 1000 | > 10 | > 10 | 33.5 | 453 | 24.4 | 8.87 | > 3000 | 6980 | > 1000 | 1390 | > 1000 | > 10 | > 10 | > 10000 | > 10
3 | EBC-1 (Squamous Cell Lung Carcinoma) | > 10 | 2940 | 23.9 | > 10 | > 300 | > 1000 | > 2000 | > 1 | > 1000 | 3.58 | > 3000 | 585 | > 10 | > 10 | 596 | > 1000 | 80.5 | > 10 | > 3000 | 59 | 4.07 | > 10000 | > 1000 | > 10 | 5.25 | 1100 | > 10
